These results are taken from US9994551B2, “Pyridazine derivatives as RORc modulators” (Genentech, Inc., priority 2015, dated 2018).

This assay addresses T1, RORc ligand binding domain (Homo sapiens, UniProt P51449).
T1 construct: host or cells: E. coli
T1 sequence (P51449 269-508 limits assumed): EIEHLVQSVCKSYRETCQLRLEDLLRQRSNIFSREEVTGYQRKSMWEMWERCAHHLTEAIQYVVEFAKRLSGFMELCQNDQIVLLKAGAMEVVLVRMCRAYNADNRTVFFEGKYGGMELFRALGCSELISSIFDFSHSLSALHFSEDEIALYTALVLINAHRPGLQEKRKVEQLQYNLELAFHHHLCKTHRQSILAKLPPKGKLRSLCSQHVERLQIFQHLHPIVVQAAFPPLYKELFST
The assay is described as follows: In vitro RORc ligand binding assay (25-[3H]hydroxycholesterol displacement, filter binding). The method, then: This assay was used to determine a compound's potency in inhibiting activity of RORc by determining, Kiapp, IC50, or percent inhibition values.
On day of the assay, 100 uL of 0.05% CHAPS (in deionized H2O) was added to all wells of the GFB Unifilter plate and allowed soak for 1 h. A wash buffer of 50 mM HEPES (pH 7.4), 150 mM NaCl, and 5 mM MgCl2 was prepared to wash the filter plate. To prepare an assay buffer, BSA was added to the wash buffer to reach 0.01% and DTT was added to reach 1 mM.
The 20× compound stocks were diluted in DMSO with Assay Buffer 4-fold to reach 5× the final test concentration in 25% DMSO (10 uL compound+30 uL Assay Buffer). Solutions were mixed by aspiration several times with a pipette set on 50 uL volume. For the assay, 10 uL of 5× compound stock solutions in 25% DMSO were added to the assay plate in duplicate.
For two point screening, 10 mM stock compound solutions were diluted in DMSO to obtain 200 uM (20× the high test concentration) and then diluted 10-fold further to reach 20 uM (20× the low test concentration). The 20× stocks were diluted 4-fold with Assay Buffer (10 uL compound+30 uL Assay Buffer) to reach 5× the test concentrations (50 uM and 5 uM) and 10 uL were added to two assay plates for the duplicate wells. With each concentration tested on 2 plates, each set of 80 compounds used 4 assay plates (1 uM and 10 uM, with n=2).
For 25-hydroxycholesterol in 25% DMSO/75% Assay Buffer; 10 uL per well was used for NSB samples. Wells for Total Binding and No Receptor sample determination contained 10 uL of 25% DMSO/75% Assay Buffer per well.
Add 20 uL to all wells to reach 6 nM final concentration in the assay.
Stock receptor solution was diluted in assay buffer to obtain 1.5 ug/mL in Assay Buffer. 20 uL was added to all wells. For No Receptor samples, 20 uL Assay Buffer was substituted for receptor solution.
Assay plates were 96-well polypropylene V-bottom plates. 10 uL of 5× compound in 25% DMSO/75% Assay Buffer was added to Test wells. 10 uL of 25% DMSO/75% Assay Buffer was added to Total Binding or No Receptor wells. 10 uL of 5 uM 25-hydroxycholesterol in 25% DMSO/75% Assay Buffer was added to NSB wells. […] 20 uL of 1.5 ug/mL RORc receptor was added to wells (or 40 uL Assay Buffer to No R wells). Following addition to the wells, the plates were incubated 3 h at 25° C.
Using a Packard Filtermate Harvester, the filter plate were washed 4 times following transfer of the incubated samples. Plates were dry-filtered completely (2 h at 50° C. or overnight at room temperature). 50 uL Microscint 0 was added to all wells and read on Topcount protocol Inverted.
For the molecule `CC[C@@H](O[C@@]12CC[C@@H](c3cc(-c4c(F)cccc4F)nnc31)C2(C)C)C(=O)Nc1nnc(C)o1` [Compound 55, (R)-2-(((5S,8R)-3-(2,6-difluorophenyl)-9,9-dimethyl-5,6,7,8-tetrahydro-5,8-methanocinnolin-8-yl)oxy)-N-(5-methyl-1,3,4-oxadiazol-2-yl)butanamide], the IC50 was found to be 94.8 nM.

In turn, `CC[C@@H](O[C@@]12CC[C@@H](c3cc(-c4c(F)cccc4F)nnc31)C2(C)C)c1nnc(C)o1` [Compound 20, 2-((R)-1-(((5S,8R)-3-(2,6-difluorophenyl)-9,9-dimethyl-5,6,7,8-tetrahydro-5,8-methanocinnolin-8-yl)oxy)propyl)-5-methyl-1,3,4-oxadiazole] came in with an IC50 of 24.1 nM. Against the preceding molecule, the IC50 is about 3.9-fold lower.

As for `CNC(=O)N1CCO[C@H]([C@@]23CC[C@@H](c4cc(-c5c(F)cccc5F)nnc42)C3(C)C)C1` [Compound 69, (R)-2-((5R,8R)-3-(2,6-difluorophenyl)-9,9-dimethyl-5,6,7,8-tetrahydro-5,8-methanocinnolin-8-yl)-N-methylmorpholine-4-carboxamide], the IC50 amounted to 37.7 nM. This IC50 is about 1.6-fold higher than that of the molecule before.

The molecule `CC1(C)[C@H]2CC[C@]1(C1CCC(=O)NC1)c1nnc(-c3c(F)cccc3F)cc12` (some centres unmarked) [Compound 116, 5-[5-(2,6-difluorophenyl)-11,11-dimethyl-3,4-diazatricyclo[6.2.1.02,7]undeca-2,4,6-trien-1-yl]piperidin-2-one] returned an IC50 of 74 nM.

On to `CC1(C)[C@H]2CC[C@]1([C@H]1CCCN(C(=O)NC3CCC3)C1)c1nnc(-c3c(F)cccc3F)cc12` [Compound 149, N-cyclobutyl-3-[5-(2,6-difluorophenyl)-11,11-dimethyl-3,4-diazatricyclo[6.2.1.02,7]undeca-2,4,6-trien-1-yl]piperidine-1-carboxamide], for which the IC50 was determined as 8.2 nM.

`CC1(C)[C@H]2CC[C@]1([C@H]1CCCN(C(=O)c3ccon3)C1)c1nnc(-c3c(F)cccc3F)cc12` [Compound 131, [3-[5-(2,6-difluorophenyl)-11,11-dimethyl-3,4-diazatricyclo[6.2.1.02,7]undeca-2,4,6-trien-1-yl]-1-piperidyl]-isoxazol-3-yl-methanone] yielded an IC50 of 6.2 nM.

`CC[C@@H](C[C@@]12CC[C@@H](c3cc(-c4c(F)cccc4F)nnc31)C2(C)C)C(N)=O` [Compound 5, (S)-2-(((5R,8R)-3-(2,6-difluorophenyl)-9,9-dimethyl-5,6,7,8-tetrahydro-5,8-methanocinnolin-8-yl)methyl)butanamide] yielded an IC50 of 67.4 nM.

As to `Cc1n[nH]c(N2CCO[C@@H]([C@@]34CC[C@@H](c5cc(-c6c(F)cccc6F)nnc53)C4(C)C)C2)n1` (single isomer, unassigned) [Compound 147, 2-[5-(2,6-difluorophenyl)-11,11-dimethyl-3,4-diazatricyclo[6.2.1.02,7]undeca-2,4,6-trien-1-yl]-4-(3-methyl-1H-1,2,4-triazol-5-yl)morpholine], the IC50 came out at 16 nM.

`Cc1nc(N2CCO[C@H]([C@@]34CC[C@@H](c5cc(-c6c(F)cccc6F)nnc53)C4(C)C)C2)n(Cc2ccccc2)n1` [Compound 143, 4-(2-benzyl-5-methyl-1,2,4-triazol-3-yl)-2-[5-(2,6-difluorophenyl)-11,11-dimethyl-3,4-diazatricyclo[6.2.1.02,7]undeca-2,4,6-trien-1-yl]morpholine] returned an IC50 of 5.6 nM.

Turning to `CC[C@@H](O[C@@]12CC[C@@H](c3cc(-c4c(F)cccc4F)nnc31)C2(C)C)C(=O)NCCCO` [Compound 105, (R)-2-(((5S,8R)-3-(2,6-difluorophenyl)-9,9-dimethyl-5,6,7,8-tetrahydro-5,8-methanocinnolin-8-yl)oxy)-N-(3-hydroxypropyl)butanamide], the IC50 is 33.9 nM. Against the preceding molecule, the IC50 is about 6.1-fold higher.

For `C[C@@H](O)CNC(=O)N1CCC[C@H]([C@@]23CC[C@@H](c4cc(-c5c(F)cccc5F)nnc42)C3(C)C)C1` [Compound 154, 3-[5-(2,6-difluorophenyl)-11,11-dimethyl-3,4-diazatricyclo[6.2.1.02,7]undeca-2,4,6-trien-1-yl]-N-(2-hydroxypropyl)piperidine-1-carboxamide], the IC50 was determined as 15 nM.

`CC(C)(C)OC(=O)N1CCNC[C@H]1[C@@]12CC[C@@H](c3cc(-c4c(F)cccc4F)nnc31)C2(C)C` [Compound 115, tert-butyl 2-[5-(2,6-difluorophenyl)-11,11-dimethyl-3,4-diazatricyclo[6.2.1.02,7]undeca-2,4,6-trien-1-yl]piperazine-1-carboxylate] had an IC50 of 3.1 nM.

As for `CC1(C)[C@H]2CC[C@]1([C@H]1CN(C(=O)C(O)CO)CCO1)c1nnc(-c3c(F)cccc3F)cc12` (stereo partly drawn) [Compound 76, 1-((S)-2-((5R,8R)-3-(2,6-difluorophenyl)-9,9-dimethyl-5,6,7,8-tetrahydro-5,8-methanocinnolin-8-yl)morpholino)-2,3-dihydroxypropan-1-one], the IC50 worked out at 277 nM. Against the preceding molecule, the IC50 is about 89-fold higher.

`CC1(C)[C@H]2CC[C@]1([C@H]1CN(S(C)(=O)=O)CCO1)c1nnc(-c3c(F)cccc3F)cc12` [Compound 73, (S)-2-((5R,8R)-3-(2,6-difluorophenyl)-9,9-dimethyl-5,6,7,8-tetrahydro-5,8-methanocinnolin-8-yl)-4-(methylsulfonyl)morpholine] came in with an IC50 of 1030 nM. Against the preceding molecule, the IC50 is about 3.7-fold higher.

`CC1(C)[C@H]2CC[C@]1([C@@H]1CN(C(=O)C(O)CO)CCO1)c1nnc(-c3c(F)cccc3F)cc12` (stereo partly drawn) [Compound 78, 1-((R)-2-((5R,8R)-3-(2,6-difluorophenyl)-9,9-dimethyl-5,6,7,8-tetrahydro-5,8-methanocinnolin-8-yl)morpholino)-2,3-dihydroxypropan-1-one] gave an IC50 of 213 nM.

For the molecule `CC1(C)[C@H]2CC[C@]1([C@H]1CCCN(C(=O)NCCO)C1)c1nnc(-c3c(F)cccc3F)cc12` (stereo in doubt) [Compound 152, 3-[5-(2,6-difluorophenyl)-11,11-dimethyl-3,4-diazatricyclo[6.2.1.02,7]undeca-2,4,6-trien-1-yl]-N-(2-hydroxyethyl)piperidine-1-carboxamide], the IC50 stood at 7.4 nM. Against the preceding molecule, the IC50 is about 29-fold lower.

`CN1CCN(C(N)=O)[C@@H]([C@@]23CC[C@@H](c4cc(-c5c(F)cccc5F)nnc42)C3(C)C)C1` [Compound 181, 2-[5-(2,6-difluorophenyl)-11,11-dimethyl-3,4-diazatricyclo[6.2.1.02,7]undeca-2,4,6-trien-1-yl]-4-methyl-piperazine-1-carboxamide] gave an IC50 of 62 nM.

On to `CCOC(=O)c1cn2c([C@@]34CC[C@@H](c5cc(-c6c(F)cccc6F)nnc53)C4(C)C)cccc2n1` [Compound 108, ethyl 5-((5R,8S)-3-(2,6-difluorophenyl)-9,9-dimethyl-5,6,7,8-tetrahydro-5,8-methanocinnolin-8-yl)imidazo[1,2-a]pyridine-2-carboxylate], for which the IC50 is 96 nM. This IC50 is about 1.5-fold higher than that of the molecule before.

`C[C@H](O)CNC(=O)N1CCC[C@H]([C@@]23CC[C@@H](c4cc(-c5c(F)cccc5F)nnc42)C3(C)C)C1` [Compound 151, 3-[5-(2,6-difluorophenyl)-11,11-dimethyl-3,4-diazatricyclo[6.2.1.02,7]undeca-2,4,6-trien-1-yl]-N-(2-hydroxypropyl)piperidine-1-carboxamide]: the IC50 turned out to be 7.7 nM.

Molecule `CC1(C)[C@H]2CC[C@]1([C@H]1CCCN(C(N)=O)C1)c1nnc(-c3c(F)cccc3F)cc12` [Compound 120, 3-[5-(2,6-difluorophenyl)-11,11-dimethyl-3,4-diazatricyclo[6.2.1.02,7]undeca-2,4,6-trien-1-yl]piperidine-1-carboxamide] showed an IC50 of 4.9 nM. Against the preceding molecule, the IC50 is about 1.6-fold lower.
